Species on record: Rattus norvegicus
Test: Compound was evaluated for its depolarizing activity in the isolated rat spinal cord and the relative potency was determined
Type: functional

In the case of C=C(C)[C@H]1CN[C@H](C(=O)O)[C@H]1CC(=O)O [KAINIC ACID], the Relative potency was 150.

Molecule O=C(O)C[C@@H]1[C@@H](C(=O)O)NC[C@H]1c1ccccc1O has a Relative potency of 0.5.

Molecule O=C(O)C[C@H]1[C@@H](C(=O)O)NC[C@@H]1c1ccccc1O has a Relative potency of 2.

Work on O=C(O)C[C@H]1[C@@H](C(=O)O)NC[C@H]1c1ccccc1O yielded a Relative potency of 0.5.

O=C(O)C[C@@H]1[C@@H](C(=O)O)NC[C@@H]1c1ccccc1O was tested, and the Relative potency was 300.

N[C@@H](CCC(=O)O)C(=O)O [GLUTAMIC ACID] gave a Relative potency of 1.

Reference: ChEMBL document CHEMBL1152058, “Configurational variants of hydroxyphenylkainoid: their potent depolarizing activities in the rat central nervous system” (1992)
